Laboratory results as given in patent US12077503B2, “Substituted cyclic amides and their use as herbicides” (FMC CORPORATION, priority 2015, dated 2024).

Tests used:
Test in all cases: Test C preemergence
Assay type in all cases: in vivo
[1] = tested on: oilseed rape (Brassica napus); conditions: for Plant response rating, Oilseed Rape: scale 0 to 100, 0 no effect, 100 complete control
In short: (§1)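 After treatment with surfactant-containing formulations, either preemergence to seeds in loam-sand soil or postemergence to potted seedlings at 2–18 cm, plants were kept 13–15 d in a greenhouse. Observers then compared them with controls and assigned ratings, 0 signifying no effect and 100 complete control.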

[2] = tested on: waterhemp (common waterhemp, Amaranthus rudis); conditions: for Plant response rating, Waterhemp: scale 0 to 100, 0 no effect, 100 complete control
In short: as §1

[3] = tested on: johnsongrass (Sorghum halepense); conditions: for Plant response rating, Johnsongrass: scale 0 to 100, 0 no effect, 100 complete control
In short: as §1

[4] = tested on: Galium (catchweed bedstraw, Galium aparine); conditions: for Plant response rating, Galium: scale 0 to 100, 0 no effect, 100 complete control
In short: as §1

[5] = tested on: blackgrass (Alopecurus myosuroides); conditions: for Plant response rating, Blackgrass: scale 0 to 100, 0 no effect, 100 complete control
In short: as §1

[6] = tested on: barnyardgrass (Echinochloa crus-galli); conditions: for Plant response rating, Barnyardgrass: scale 0 to 100, 0 no effect, 100 complete control
In short: as §1

[7] = tested on: ryegrass, Italian (Italian ryegrass, Lolium multiflorum); conditions: for Plant response rating, Ryegrass, Italian: scale 0 to 100, 0 no effect, 100 complete control
In short: as §1

[8] = tested on: crabgrass, large (large crabgrass, Digitaria sanguinalis); conditions: for Plant response rating, Crabgrass, Large: scale 0 to 100, 0 no effect, 100 complete control
In short: as §1

[9] = tested on: ragweed (common ragweed, Ambrosia elatior); conditions: for Plant response rating, Ragweed: scale 0 to 100, 0 no effect, 100 complete control
In short: as §1

[10] = tested on: wheat (winter wheat, Triticum aestivum); conditions: for Plant response rating, Wheat: scale 0 to 100, 0 no effect, 100 complete control
In short: as §1

[11] = tested on: soybean (Glycine max); conditions: for Plant response rating, Soybean: scale 0 to 100, 0 no effect, 100 complete control
In short: as §1

[12] = tested on: nutsedge, yellow (yellow nutsedge, Cyperus esculentus); conditions: for Plant response rating, Nutsedge, Yellow: scale 0 to 100, 0 no effect, 100 complete control
In short: as §1

[13] = tested on: morningglory (Ipomoea coccinea); conditions: for Plant response rating, Morningglory: scale 0 to 100, 0 no effect, 100 complete control
In short: as §1

[14] = tested on: velvetleaf (Abutilon theophrasti); conditions: for Plant response rating, Velvetleaf: scale 0 to 100, 0 no effect, 100 complete control
In short: as §1

[15] = tested on: corn (Zea mays); conditions: for Plant response rating, Corn: scale 0 to 100, 0 no effect, 100 complete control
In short: as §1

[16] = tested on: foxtail, giant (giant foxtail, Setaria faberii); conditions: for Plant response rating, Foxtail, Giant: scale 0 to 100, 0 no effect, 100 complete control
In short: as §1

[17] = tested on: lambsquarters (Chenopodium album); conditions: for Plant response rating, Lambsquarters: scale 0 to 100, 0 no effect, 100 complete control
In short: as §1

[18] = 31 g ai/ha, 0 is no effect, 100 is complete control

**Q.** What does the source list for CN1CC(c2cccc(OC(F)F)c2)C(C(=O)Nc2cccc(F)c2F)C1=O (centres unmarked) [Compound 616]?
**A.** Plant response rating (scale of 0 to 100), Oilseed Rape [1, 18]: 60; Plant response rating, Oilseed Rape ([1]; 62 g ai/ha): 60; Plant response rating, Oilseed Rape ([1]; 125 g ai/ha): 70; Plant response rating, Oilseed Rape ([1]; 250 g ai/ha): 85; Plant response rating (scale of 0 to 100), Waterhemp [2, 18]: 50; Plant response rating, Waterhemp ([2]; 62 g ai/ha): 80; Plant response rating, Waterhemp ([2]; 125 g ai/ha): 85; Plant response rating, Waterhemp ([2]; 250 g ai/ha): 85; Plant response rating (scale of 0 to 100), Johnsongrass [3, 18]: 60; Plant response rating, Johnsongrass ([3]; 62 g ai/ha): 85; Plant response rating, Johnsongrass ([3]; 125 g ai/ha): 75; Plant response rating, Johnsongrass ([3]; 250 g ai/ha): 90; Plant response rating (scale of 0 to 100), Galium [4, 18]: 90; Plant response rating, Galium ([4]; 62 g ai/ha): 85; Plant response rating, Galium ([4]; 125 g ai/ha): 85; Plant response rating, Galium ([4]; 250 g ai/ha): 90; Plant response rating (scale of 0 to 100), Blackgrass [5, 18]: 30; Plant response rating, Blackgrass ([5]; 62 g ai/ha): 45; Plant response rating, Blackgrass ([5]; 125 g ai/ha): 80; Plant response rating, Blackgrass ([5]; 250 g ai/ha): 80; Plant response rating (scale of 0 to 100), Barnyardgrass [6, 18]: 90; Plant response rating, Barnyardgrass ([6]; 62 g ai/ha): 90; Plant response rating, Barnyardgrass ([6]; 125 g ai/ha): 95; Plant response rating, Barnyardgrass ([6]; 250 g ai/ha): 95; Plant response rating (scale of 0 to 100), Ryegrass, Italian [7, 18]: 30; Plant response rating, Ryegrass, Italian ([7]; 62 g ai/ha): 35; Plant response rating, Ryegrass, Italian ([7]; 125 g ai/ha): 90; Plant response rating, Ryegrass, Italian ([7]; 250 g ai/ha): 85; Plant response rating (scale of 0 to 100), Crabgrass, Large [8, 18]: 90; Plant response rating, Crabgrass, Large ([8]; 62 g ai/ha): 90; Plant response rating, Crabgrass, Large ([8]; 125 g ai/ha): 95; Plant response rating, Crabgrass, Large ([8]; 250 g ai/ha): 95; Plant response rating (scale of 0 to 100), Ragweed [9, 18]: 25; Plant response rating, Ragweed ([9]; 62 g ai/ha): 25; Plant response rating, Ragweed ([9]; 125 g ai/ha): 50; Plant response rating, Ragweed ([9]; 250 g ai/ha): 75; Plant response rating (scale of 0 to 100), Wheat [10, 18]: 0; Plant response rating, Wheat ([10]; 62 g ai/ha): 10; Plant response rating, Wheat ([10]; 125 g ai/ha): 50; Plant response rating, Wheat ([10]; 250 g ai/ha): 85; Plant response rating (scale of 0 to 100), Soybean [11, 18]: 0; Plant response rating, Soybean ([11]; 62 g ai/ha): 0; Plant response rating, Soybean ([11]; 125 g ai/ha): 0; Plant response rating, Soybean ([11]; 250 g ai/ha): 15; Plant response rating (scale of 0 to 100), Nutsedge, Yellow [12, 18]: 0; Plant response rating, Nutsedge, Yellow ([12]; 62 g ai/ha): 0; Plant response rating, Nutsedge, Yellow ([12]; 125 g ai/ha): 0; Plant response rating, Nutsedge, Yellow ([12]; 250 g ai/ha): 0; Plant response rating (scale of 0 to 100), Morningglory [13, 18]: 0; Plant response rating, Morningglory ([13]; 62 g ai/ha): 0; Plant response rating, Morningglory ([13]; 125 g ai/ha): 10; Plant response rating, Morningglory ([13]; 250 g ai/ha): 10; Plant response rating (scale of 0 to 100), Velvetleaf [14, 18]: 0; Plant response rating, Velvetleaf ([14]; 62 g ai/ha): 10; Plant response rating, Velvetleaf ([14]; 125 g ai/ha): 40; Plant response rating, Velvetleaf ([14]; 250 g ai/ha): 35; Plant response rating (scale of 0 to 100), Corn [15, 18]: 55; Plant response rating, Corn ([15]; 62 g ai/ha): 65; Plant response rating, Corn ([15]; 125 g ai/ha): 80; Plant response rating, Corn ([15]; 250 g ai/ha): 85; Plant response rating (scale of 0 to 100), Foxtail, Giant [16, 18]: 90; Plant response rating, Foxtail, Giant ([16]; 62 g ai/ha): 90; Plant response rating, Foxtail, Giant ([16]; 125 g ai/ha): 90; Plant response rating, Foxtail, Giant ([16]; 250 g ai/ha): 95; Plant response rating (scale of 0 to 100), Lambsquarters [17, 18]: 25; Plant response rating, Lambsquarters ([17]; 62 g ai/ha): 35; Plant response rating, Lambsquarters ([17]; 125 g ai/ha): 70; Plant response rating, Lambsquarters ([17]; 250 g ai/ha): 60
